Results: patent publication US20060099216A1, “Peptide delivery” (Biovation Limited, priority 1994, published 2006)

System: mouse Sp2/0 cells
Experiment: CTL assay: 51Cr release from target Sp2/0 cells treated with antibody fragments or peptide, with p53 peptide-specific CTLs
Assay type: cell-based
Conditions: Sp2/0 target cells, treated 4 hours at 37° C. with antibody fragment dilutions or 10 μg/ml peptide

## KYICNSSCM (p53 CTL reactive peptide) [p53 peptide only]
effector:target 5:1
  % Specific 51Cr Release at E/T Ratio 5:1: 41%
effector:target 10:1
  % Specific 51Cr Release at E/T Ratio 10:1: 57%
effector:target 20:1
  % Specific 51Cr Release at E/T Ratio 20:1: 46%
